Laboratory results published in US6737383B1, “Herbicidal oxadiazolidines” (priority 1999, dated 2004).

How the values were obtained:
velvetleaf = experiment: Test B pre/postemergence velvetleaf; format: in vivo, Abutilon theophrasti
Method in brief: (§1)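 Response is a visual 0-to-10 score relative to untreated plants, where 0 means no effect and 10 means complete control, taken twelve to sixteen days after application. Treatments went onto soil at planting and onto foliage of 1- to 4-leaf plants, using a surfactant-containing non-phytotoxic solvent.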

wheat = experiment: Test B pre/postemergence wheat; format: in vivo, Triticum aestivum
Method in brief: as §1

corn = experiment: Test B pre/postemergence corn; format: in vivo, Zea mays
Method in brief: as §1

soybean = experiment: Test B pre/postemergence soybean; format: in vivo, Glycine max
Method in brief: as §1

bedstraw = experiment: Test B pre/postemergence bedstraw; format: in vivo, Galium aparine
Method in brief: as §1

blackgrass = experiment: Test B pre/postemergence blackgrass; format: in vivo, Alopecurus myosuroides
Method in brief: as §1

crabgrass = experiment: Test B pre/postemergence crabgrass; format: in vivo, Digitaria sanguinalis
Method in brief: as §1

rice = experiment: Test B flood test rice; format: in vivo, Oryza sativa
Method in brief: (§2)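 Plants were grown to the 2-leaf stage before treatment with test chemical, then held in a greenhouse for twelve to sixteen days. Injury was visually rated against untreated controls on a 0–10 scale, where 0 is no effect and 10 is complete control.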

pigweed = experiment: Test B pre/postemergence pigweed; format: in vivo, Amaranthus retroflexus
Method in brief: as §1

duck salad = experiment: Test B flood test duck salad; format: in vivo, Heteranthera limosa
Method in brief: as §2

smallflower flatsedge = experiment: Test B flood test smallflower flatsedge; format: in vivo, Cyperus difformis
Method in brief: as §2

purple nutsedge = experiment: Test B pre/postemergence purple nutsedge; format: in vivo, Cyperus rotundus
Method in brief: as §1

wild oat = experiment: Test B pre/postemergence wild oat; format: in vivo, Avena fatua
Method in brief: as §1

surinam grass = experiment: Test B pre/postemergence surinam grass; format: in vivo, Brachiaria decumbens
Method in brief: as §1

giant foxtail = experiment: Test B pre/postemergence giant foxtail; format: in vivo, Setaria faberii
Method in brief: as §1

morningglory = experiment: Test B pre/postemergence morningglory; format: in vivo, Ipomoea hederacea
Method in brief: as §1

[1] = Postemergence, Rate 62 g/ha, scale 0 to 10, 0 is no effect, 10 is complete control
[2] = Postemergence, Rate 125 g/ha, scale of 0 to 10 where 0 is no effect and 10 is complete control
[3] = Postemergence, Rate 250 g/ha, scale of 0 to 10, 0 is no effect, 10 is complete control
[4] = Postemergence, Rate 500 g/ha, scale of 0 to 10 where 0 is no effect and 10 is complete control
[5] = Preemergence, Rate 62 g/ha, scale 0 to 10 (0 no effect, 10 complete control)
[6] = Preemergence, Rate 125 g/ha, scale of 0 to 10 where 0 is no effect and 10 is complete control
[7] = Preemergence, Rate 500 g/ha, scale of 0 to 10 where 0 is no effect and 10 is complete control
[8] = Rate 62 g/ha, flood test species, Pre-emergence, visual evaluation after twelve to sixteen days
[9] = Rate 125 g/ha, under heading Pre-emergence, flood test species, visual evaluation after twelve to sixteen days
[10] = Rate 250 g/ha, Pre-emergence (flood test species), scale 0 to 10, 0 is no effect, 10 is complete control
[11] = Rate 500 g/ha, Pre-emergence section of Table B, 0 to 10 scale (0 no effect, 10 complete control)

CCC(C)n1c(=O)on(C(=O)N(c2ccccc2)C(C)C)c1=O (centres unmarked) [Compound 611]
Plant response rating, Velvetleaf (velvetleaf; [1]): 0
Plant response rating, Velvetleaf (velvetleaf; [2]): 3
Velvetleaf plant response rating (velvetleaf; [3]): 5
Plant response rating, Velvetleaf (velvetleaf; [4]): 5
Velvetleaf plant response rating (velvetleaf; [5]): 6
Velvetleaf plant response rating (velvetleaf; [6]): 6
Plant response rating, Velvetleaf (velvetleaf; [7]): 8
Plant response rating, Wheat (wheat; [1]): 0
Plant response rating, Wheat (wheat; [2]): 0
Wheat plant response rating (wheat; [3]): 2
Plant response rating, Wheat (wheat; [4]): 8
Wheat plant response rating (wheat; [5]): 1
Wheat plant response rating (wheat; [6]): 3
Plant response rating, Wheat (wheat; [7]): 7
Plant response rating, Corn (corn; [1]): 0
Plant response rating, Corn (corn; [2]): 0
Corn plant response rating (corn; [3]): 4
Plant response rating, Corn (corn; [4]): 6
Corn plant response rating (corn; [5]): 2
Corn plant response rating (corn; [6]): 3
Corn plant response rating (0 to 10 scale) (corn; Preemergence, Rate 250 g/ha): 9
Plant response rating, Corn (corn; [7]): 9
Plant response rating, Soybean (soybean; [1]): 5
Plant response rating, Soybean (soybean; [2]): 7
Soybean plant response rating (soybean; [3]): 8
Plant response rating, Soybean (soybean; [4]): 8
Soybean plant response rating (soybean; [5]): 2
Soybean plant response rating (soybean; [6]): 2
Plant response rating, Soybean (soybean; [7]): 7
Bedstraw plant response rating (bedstraw; [3]): 6
Plant response rating, Bedstraw (bedstraw; [4]): 9
Bedstraw plant response rating (bedstraw; [5]): 1
Bedstraw plant response rating (bedstraw; [6]): 1
Bedstraw plant response rating (bedstraw; [7]): 10
Plant response rating, Blackgrass (blackgrass; [1]): 7
Plant response rating, Blackgrass (blackgrass; [2]): 9
Blackgrass plant response rating (blackgrass; [3]): 9
Plant response rating, Blackgrass (blackgrass; [4]): 9
Blackgrass plant response rating (blackgrass; [5]): 9
Blackgrass plant response rating (blackgrass; [6]): 9
Blackgrass plant response rating (0 to 10 scale) (blackgrass; Preemergence, Rate 250 g/ha): 10
Blackgrass plant response rating (blackgrass; [7]): 10
Plant response rating, Crabgrass (crabgrass; [1]): 8
Plant response rating, Crabgrass (crabgrass; [2]): 8
Crabgrass plant response rating (crabgrass; [3]): 9
Plant response rating, Crabgrass (crabgrass; [4]): 9
Crabgrass plant response rating (crabgrass; [5]): 9
Crabgrass plant response rating (crabgrass; [6]): 10
Plant response rating, Crabgrass (crabgrass; [7]): 10
Plant response rating, Rice (0 to 10 scale, 0 is no effect, 10 is complete control) (rice; [8]): 0
Rice plant response rating (0 to 10 scale, 0 is no effect, 10 is complete control) (rice; [9]): 0
Rice plant response rating (rice; [10]): 0
Rice plant response rating (rice; [11]): 2
Plant response rating, Redroot pigweed (pigweed; [1]): 0
Plant response rating, Redroot pigweed (pigweed; [2]): 2
Redroot pigweed plant response rating (pigweed; [3]): 3
Plant response rating, Redroot pigweed (pigweed; [4]): 8
Redroot pigweed plant response rating (pigweed; [5]): 6
Redroot pigweed plant response rating (pigweed; [6]): 8
Plant response rating, Redroot pigweed (pigweed; [7]): 10
Plant response rating, Ducksalad (0 to 10 scale, 0 is no effect, 10 is complete control) (duck salad; [8]): 0
Ducksalad plant response rating (0 to 10 scale, 0 is no effect, 10 is complete control) (duck salad; [9]): 0
Ducksalad plant response rating (duck salad; [10]): 0
Ducksalad plant response rating (duck salad; [11]): 1
Plant response rating, S. Flatsedge (0 to 10 scale, 0 is no effect, 10 is complete control) (smallflower flatsedge; [8]): 0
S. Flatsedge plant response rating (0 to 10 scale, 0 is no effect, 10 is complete control) (smallflower flatsedge; [9]): 0
S. Flatsedge plant response rating (smallflower flatsedge; [10]): 0
S. Flatsedge plant response rating (smallflower flatsedge; [11]): 0
Plant response rating, Nutsedge (purple nutsedge; [1]): 0
Plant response rating, Nutsedge (purple nutsedge; [2]): 0
Nutsedge plant response rating (purple nutsedge; [3]): 3
Plant response rating, Nutsedge (purple nutsedge; [4]): 3
Nutsedge plant response rating (purple nutsedge; [5]): 0
Nutsedge plant response rating (purple nutsedge; [6]): 0
Plant response rating, Nutsedge (purple nutsedge; [7]): 2
Plant response rating, Wild oats (wild oat; [1]): 0
Plant response rating, Wild oats (wild oat; [2]): 2
Wild oats plant response rating (wild oat; [3]): 4
Plant response rating, Wild oats (wild oat; [4]): 7
Wild oats plant response rating (wild oat; [5]): 5
Wild oats plant response rating (wild oat; [6]): 7
Plant response rating, Wild oats (wild oat; [7]): 8
Plant response rating, B. signalgrass (surinam grass; [1]): 0
Plant response rating, B. signalgrass (surinam grass; [2]): 3
B. signalgrass plant response rating (surinam grass; [3]): 7
Plant response rating, B. signalgrass (surinam grass; [4]): 8
B. signalgrass plant response rating (surinam grass; [5]): 7
B. signalgrass plant response rating (surinam grass; [6]): 7
B. signalgrass plant response rating (0 to 10 scale, 0 is no effect, 10 is complete control) (surinam grass; Preemergence, Rate 250 g/ha): 10
B. signalgrass plant response rating (surinam grass; [7]): 10
Plant response rating, Giant foxtail (giant foxtail; [1]): 8
Plant response rating, Giant foxtail (giant foxtail; [2]): 8
Giant foxtail plant response rating (giant foxtail; [3]): 9
Plant response rating, Giant foxtail (giant foxtail; [4]): 9
Giant foxtail plant response rating (giant foxtail; [5]): 10
Giant foxtail plant response rating (giant foxtail; [6]): 10
Plant response rating, Giant foxtail (giant foxtail; [7]): 10
Plant response rating, Morningglory (morningglory; [1]): 7
Plant response rating, Morningglory (morningglory; [2]): 8
Morningglory plant response rating (morningglory; [3]): 8
Plant response rating, Morningglory (morningglory; [4]): 8
Morningglory plant response rating (morningglory; [5]): 0
Morningglory plant response rating (morningglory; [6]): 0
Plant response rating, Morningglory (morningglory; [7]): 6
